US6576628B1, “3-aryl-succinamido-hydroxamic acids, methods for producing said acids and medicaments containing the same” (Roche Diagnostics GmbH, priority 1997, dated 2003)

Legend:
Type in all cases: biochemical
[1] = biological target: T1, MMP2 (Homo sapiens, UniProt P08253); assay: MMP2 inhibition assay in analogy to HNC (MMP8) assay; conditions: activated MMP2; other concentrations than MMP8 assay
T1 sequence (P08253 110-660): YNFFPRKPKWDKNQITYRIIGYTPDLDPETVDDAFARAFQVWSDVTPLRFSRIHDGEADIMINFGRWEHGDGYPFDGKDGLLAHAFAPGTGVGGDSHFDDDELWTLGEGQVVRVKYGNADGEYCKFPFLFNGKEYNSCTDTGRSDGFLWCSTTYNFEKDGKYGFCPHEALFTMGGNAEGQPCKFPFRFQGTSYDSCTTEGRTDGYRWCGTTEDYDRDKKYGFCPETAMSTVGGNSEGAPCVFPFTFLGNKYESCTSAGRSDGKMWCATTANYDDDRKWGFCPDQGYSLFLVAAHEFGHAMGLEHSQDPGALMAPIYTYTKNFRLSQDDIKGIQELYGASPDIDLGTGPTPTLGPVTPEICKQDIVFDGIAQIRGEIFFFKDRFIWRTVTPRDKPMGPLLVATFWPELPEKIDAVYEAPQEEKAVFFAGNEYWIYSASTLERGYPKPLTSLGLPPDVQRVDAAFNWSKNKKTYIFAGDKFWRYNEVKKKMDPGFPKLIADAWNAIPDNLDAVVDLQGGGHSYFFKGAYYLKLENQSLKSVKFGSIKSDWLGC

[2] = biological target: T2, MMP1 (Homo sapiens, UniProt P03956); assay: MMP1 inhibition assay in analogy to HNC (MMP8) assay; conditions: for inhibition at 0.2 µM: inhibitor at 200 nM, activated MMP1
T2 sequence (P03956 100-469): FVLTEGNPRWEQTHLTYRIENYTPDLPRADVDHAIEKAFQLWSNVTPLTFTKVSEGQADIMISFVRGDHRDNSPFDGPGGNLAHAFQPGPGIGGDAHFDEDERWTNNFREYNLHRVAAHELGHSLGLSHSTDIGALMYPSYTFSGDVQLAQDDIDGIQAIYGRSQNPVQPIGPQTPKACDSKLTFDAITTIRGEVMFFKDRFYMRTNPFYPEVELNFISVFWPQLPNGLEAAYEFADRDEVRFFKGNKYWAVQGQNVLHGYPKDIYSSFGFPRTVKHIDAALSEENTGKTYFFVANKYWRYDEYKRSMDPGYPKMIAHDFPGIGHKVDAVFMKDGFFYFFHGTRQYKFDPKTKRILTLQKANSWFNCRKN
Protocol: In order to determine the inhibitory potential of compounds of the general formula I on MMPs such as HNC, the catalytic domain is incubated (isolation and purification see Schnierer, S., Kleine, T., Gote, T., Hillemann, A., Knäuper, V., Tschesche, H., Biochem. Biophys. Res. Commun. (1993), 191, 319-326). Subsequently the initial reaction rate of a standard substrate is measured as described in Grams F. et al., FEBS 335 (1993) 76-80). The results are evaluated in the usual manner (see e.g. Dixon, M., Biochem. J. (1953) 55, 170-202).
The synthetic collagenase substrate is a heptapeptide coupled C-terminally with dinitrophenol (DNP). This DNP residue quenches the fluorescence of the Trp of the heptapeptide. After cleavage of a tripeptide containing the DNP residue, the measurable fluorescence increases.
A solution of enzyme and inhibitor is prepared in assay buffer at 25° C. The reaction is started by addition of the substrate to the solution. The cleavage of the fluorogenic substrate is measured by fluorescence spectroscopy (excitation and emission wavelength at 280 and 350 nm respectively). The IC50 value is determined for an inhibitor concentration at which the reaction rate is halved.
An activation is additionally necessary for MMP2 and MMP1.

[3] = biological target: T3, catalytic domain (Met80-Gly242) of the human neutrophilic collagenase (MMP8) (Homo sapiens, UniProt P22894); assay: MMP8 (HNC) catalytic domain fluorogenic substrate inhibition assay; conditions: 8 nM catalytic domain, 10 μM DNP-heptapeptide substrate, 25° C., pH 7.6
T3 construct: catalytic domain (Met80-Gly242) of the human neutrophilic collagenase (MMP8); made in house
T3 sequence (P22894 100-262): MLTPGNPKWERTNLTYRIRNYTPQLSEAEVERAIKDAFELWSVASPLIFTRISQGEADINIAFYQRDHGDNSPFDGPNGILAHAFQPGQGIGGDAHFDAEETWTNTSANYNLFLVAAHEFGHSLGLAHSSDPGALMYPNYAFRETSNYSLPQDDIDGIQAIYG
Protocol: 50 mM Tris/HCl pH 7.6 (Tris=Tris-(hydroxymethyl)-aminomethane)
100 mM NaCl/10 mM CaCl2/5% MeOH (if required)
8 nM catalytic domain (Met80-Gly242) of the human neutrophilic collagenase (MMP8)

Row | SMILES | IC50 [1] | inhibition of MMP1 compared with Marimastat (in words) [2] | selectivity relative to MMP1 (in words) ([2]; compared with Marimastat, MMP2/MMP8 versus MMP1) | inhibition at 0.2 µM [2] | IC50 [3]
1 | CNC(=O)[C@@H](NC(=O)C(c1ccc(-c2ccccc2)cc1)C(O)C(=O)NO)C(C)(C)C (mixture of isomers) [example 1.5, 2-Biphenyl-4-yl-N1-((1S)-2,2-dimethyl-1-methyl-carbamoyl-propyl)-3,N4-dihydroxy-succinamide] | 23 nM | substantially poorer than by Marimastat | clear selectivity advantage relative to MMP1 | 20% | 18 nM
2 | CNC(=O)[C@@H](NC(=O)[C@H](CC(C)C)[C@H](O)C(=O)NO)C(C)(C)C [Marimastat, N2-[3S-hydroxy-4-(N-hydroxyamino)-2R-isobutyl-succinyl)-L-tert-leucine-N1-methylamide, reference compound] | – | – | – | 100% | –
